Experimental findings from US20240041898A9, “NEUROSTEROIDS AND ENANTIOMERS THEREOF FOR THE PREVENTION AND TREATMENT OF NEURODEGENERATIVE CONDITIONS” (priority 2019, published 2024) are described below.

The test deals with LC3-II. As to the kind of experiment: Ex vivo pressure-loaded retinas, Western blot of LC3-II. It counts as cell-based, rat. The settings on record: ex vivo; for LC3-II expression (FIG. 2Q), Average / LC3-II expression (FIG. 2Q), individual experiments 1-4: relative units, control = 1.00, normalized to β-actin. As for the experimental part: Rat ex vivo Eyecup Preparation—Rat ex vivo eyecups were prepared from 28-32 day old male Sprague-Dawley rats (Charles River Laboratories International Inc., Wilmington, MA). The anterior half of the enucleated eyes was carefully removed to make eyecup preparations. Eyecups were placed at the bottom of a 100 ml glass beaker filled with aCSF (artificial cerebrospinal fluid) containing (in mM): 124 NaCl, 5 KCl, 2 MgSO4, 2 CaCl2, 1.25 NaH2PO4, 22 NaHCO3, and 10 glucose, and incubated at 30° C. for 24 hours using a closed pressure-loading system (FIG. 1C). pH was maintained at 7.35 to 7.40. In the closed-pressure system, a glass beaker with the eyecup was placed at the bottom of an acrylic pressure chamber (2,000 ml volume). A 95% O2-5% CO2 gas mixture was delivered through disposable plastic tubing with an infusion valve and a control dial on the lid of the pressure chamber and an air filter (Cat #SLGP033RS, Merck Millipore, Billerica, MA). The plastic tubing delivering the gas terminated 1 cm above the bottom of the beaker.
Acutely prepared eyecups were incubated in gassed aCSF for at least 1 h at 30° C. before pressure loading. In some experiments, AlloP (1 μM), ent-AlloP (1 μM), and 3-MA (10 mM) were dissolved in aCSF at the time of experiment and administered by bath perfusion. Eyecup preparations were treated with these drugs for 1 h at 30° C. before pressure loading. For pressure loading, the 95% O2-5% CO2 gas mixture was infused until the pressure reading given by a manometer reached the appropriate level. The pressure was then locked by adjusting the control dial of the effusion valve, and monitored continuously for 24 h at 30° C.
Western Blot Analysis—At the end of each experiment, the posterior segments of the eye were placed on a flat cutting surface and immersed in ice-cold aCSF. With a surgical blade, the retina was carefully and gently detached from the sclera with a fine forceps. The isolated retinas were frozen at −80° C. Retinas were then homogenized in lysis buffer solution (CelLytic MT; Sigma-Aldrich, Inc.) with protease inhibitor cocktail (Sigma-Aldrich, Inc.), prepared according to the manufacturer's instructions. The tissue extracts were ultrasonicated and clarified by centrifugation at 12,000 g for 20 minutes at 4° C. The protein concentrations in supernatants were assayed (Quant-iT assay kit; Invitrogen Corp., Carlsbad, CA). Twenty micrograms of retinal extract were subjected to SDS polyacrylamide gel electrophoretic analysis. The proteins were then transferred to a PVDF. Immunoblots by polyclonal rabbit anti-LC3B antibody (MBL Life Science) or anti-SQSTMl/p62 mouse monoclonal antibody (Abcam) were visualized using WesternBreeze Chemiluminescent Immunodetection system (Invitrogen) with the exposure time to autoradiograph film (MXJB Plus; Kodak, Rochester, NY) adjusted to avoid over- or undersaturation. Precision Plus Protein™ Western Standards (Bio-Rad, Hercules, CA) followed by Precision Protein™ strep Tactin-AP conjugate (Bio-Rad) was used for a molecular marker of LC3. MagicMark™ XP Western Protein Standard (Invitrogen, Carlsbad, CA) was used for a molecular marker of p62. Immunoblot data are normalized to β-actin levels in the same sample.
The density of Western blot bands was quantified using Image-Pro Plus software. Quantification was adjusted to protein expression at 10 mmHg after normalization to the β-actin band at each pressure, and the relative gray-scale value was calculated by densitometric analysis of the obtained bands. At least four independent experiments were performed for each condition, and the results are presented as relative units numerically. Differences in expression levels were evaluated using Wilcoxon Rank-Sum Test, Tukey's or Dunnett's multiple comparison test. Sample numbers were four to five per each experimental condition.

Where “and” joins values, the source holds several entries; their conditions need not be identical. Equal entries are not always repeated.

As for `CC(=O)[C@H]1CC[C@H]2[C@@H]3CC[C@H]4C[C@H](O)CC[C@]4(C)[C@H]3CC[C@]12C` [AlloP, allopregnanolone], the “LC3-II expression (FIG. 2Q), Average” value (Average of 4) worked out at 3.62. Also, where the note is “single values”, the “LC3-II expression (FIG. 2Q), individual experiments 1-4” value was 4.31 and 3.47 and 3.34 (2×).
Take `CC(=O)[C@@H]1CC[C@@H]2[C@H]3CC[C@@H]4C[C@@H](O)CC[C@@]4(C)[C@@H]3CC[C@]21C` [ent-AlloP, ent-allopregnanolone]: the “LC3 expression after 3-MA treatment (FIG. 3F), Average” value (75 mmHg, 1 μM ent-AlloP, 10 mM 3-MA, relative, ent-AlloP + 3-MA = 1.00, Average of 4) came to 9.00. In addition, where the note is “75 mmHg, 1 μM ent-AlloP, 10 mM 3-MA, relative, ent-AlloP + 3-MA = 1.00, single values”, the “LC3 expression after 3-MA treatment (FIG. 3F), individual experiments 1-4” value is 11.20 and 8.89 and 7.78 and 8.11. Further, the “LC3-II expression (FIG. 2Q), Average” value (Average of 4) was found to be 5.25. The “LC3-II expression (FIG. 2Q), individual experiments 1-4” value (single values) is 6.14 and 5.17 and 4.48 and 5.22.
